According to patent publication US9200017B2, “Multimodal imaging of fibrin” (The General Hospital Corporation, priority 2009, dated 2015):

Target: T1, fibrin (clotted fibrinogen from human plasma) (Homo sapiens, UniProt P02671+P02675+P02679)
T1 construct: thrombin cleaves fibrinopeptides on fibrinogen resulting in an end-to-end polymerization to give the polymer fibrin; Fibrinogen from human plasma (Calbiochem); purchased Calbiochem; host or cells: human plasma
T1 sequence (P02671 36-629 isoform P02671-2 limits assumed): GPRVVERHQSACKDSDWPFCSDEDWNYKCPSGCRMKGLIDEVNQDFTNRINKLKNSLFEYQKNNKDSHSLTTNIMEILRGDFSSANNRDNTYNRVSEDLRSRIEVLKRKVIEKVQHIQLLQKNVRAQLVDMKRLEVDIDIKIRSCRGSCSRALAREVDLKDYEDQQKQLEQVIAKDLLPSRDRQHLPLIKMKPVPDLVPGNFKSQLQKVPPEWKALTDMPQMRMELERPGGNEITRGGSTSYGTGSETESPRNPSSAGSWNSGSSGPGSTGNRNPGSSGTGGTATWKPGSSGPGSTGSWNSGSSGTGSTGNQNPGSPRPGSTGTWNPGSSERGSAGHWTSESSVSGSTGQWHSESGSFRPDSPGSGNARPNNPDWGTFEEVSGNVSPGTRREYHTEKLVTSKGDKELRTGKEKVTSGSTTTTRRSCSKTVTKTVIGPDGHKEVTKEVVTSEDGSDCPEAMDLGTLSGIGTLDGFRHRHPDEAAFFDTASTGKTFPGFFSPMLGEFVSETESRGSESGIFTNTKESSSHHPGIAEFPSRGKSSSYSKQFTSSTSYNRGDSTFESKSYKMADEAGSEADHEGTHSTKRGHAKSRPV
T1 sequence (P02675 45-491 limits assumed): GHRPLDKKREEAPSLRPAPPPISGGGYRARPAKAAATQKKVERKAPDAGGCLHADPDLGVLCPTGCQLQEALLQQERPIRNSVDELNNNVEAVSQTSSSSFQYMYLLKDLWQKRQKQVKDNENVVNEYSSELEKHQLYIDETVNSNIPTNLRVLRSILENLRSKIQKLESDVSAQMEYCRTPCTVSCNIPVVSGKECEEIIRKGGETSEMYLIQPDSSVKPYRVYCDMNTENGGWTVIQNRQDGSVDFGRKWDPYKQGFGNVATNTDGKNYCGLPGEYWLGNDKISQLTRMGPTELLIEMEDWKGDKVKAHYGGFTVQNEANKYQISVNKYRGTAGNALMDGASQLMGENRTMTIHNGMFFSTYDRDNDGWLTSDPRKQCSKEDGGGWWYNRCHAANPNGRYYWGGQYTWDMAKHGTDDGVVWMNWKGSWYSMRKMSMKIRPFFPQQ
T1 sequence (P02679 27-437 isoform P02679-2 limits assumed): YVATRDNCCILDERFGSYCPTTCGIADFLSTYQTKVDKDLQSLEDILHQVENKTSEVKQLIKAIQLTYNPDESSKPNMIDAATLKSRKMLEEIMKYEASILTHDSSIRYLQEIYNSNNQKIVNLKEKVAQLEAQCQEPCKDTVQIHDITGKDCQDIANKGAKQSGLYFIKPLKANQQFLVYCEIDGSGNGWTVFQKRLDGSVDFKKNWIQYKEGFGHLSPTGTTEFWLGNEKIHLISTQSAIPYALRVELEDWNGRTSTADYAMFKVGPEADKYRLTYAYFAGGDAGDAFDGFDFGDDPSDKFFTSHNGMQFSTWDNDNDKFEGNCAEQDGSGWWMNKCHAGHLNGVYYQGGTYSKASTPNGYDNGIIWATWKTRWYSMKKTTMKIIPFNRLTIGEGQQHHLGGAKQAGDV
Test: Fibrin binding of Cu-64 labeled probes, dried fibrin plate, percentage bound
Details: dried fibrin wells, 37° C., unbound probe by well counting
Experimental: Fibrinogen from human plasma (Calbiochem) was dialyzed against 50 mM Tris, pH 7.4, 150 mM sodium chloride, 5 mM sodium citrate (TBS·citrate). The fibrinogen concentration was adjusted to 5 mg/mL and CaCl2 was added (7 mM). The fibrinogen solution (50 μL) was dispensed into the wells of a 96-well polystyrene microplate (Immulon-II). A solution (50 μL) of human thrombin (2 U/mL) in TBS was added to each well to clot the fibrinogen. The plates were incubated at 37° C. and evaporated to dryness overnight. The plates were sealed with tape and stored at −20° C. until use. The wells with dried fibrin were incubated at 37° C. with known concentrations of the probes. The concentration of the unbound probe was determined by well counting. The concentration of the bound probe=[total]−[unbound]. The percentage bound probe was given by [(bound probe)/total probe)]×100.

% bound (percentage bound probe): 98.7%
Substance: Gd3-EP-2104R-Cu [Compound 21]
